Common to all, as to format: functional, cell-based
One test deals with DU-145. Briefly: Antiproliferative activity against human prostate cancer DU-145 cell line by sulforhodamine B assay. For orientation: In SRB staining, fixed cells bind dye roughly in proportion to their protein.
The test system of the next test is PC-3. Put plainly: Antiproliferative activity against human prostate cancer PC-3 cell line by sulforhodamine B assay.
Test [1] is described as follows: Antiproliferative activity against human prostate cancer TSU-Pr1 cell line by sulforhodamine B assay.
For another test, the system named is LNCaP. Briefly: Antiproliferative activity against human prostate cancer LNCaP cell line by sulforhodamine B assay.
Test [2] can be described thus: Antiproliferative activity against human prostate cancer PPC-1 cell line by sulforhodamine B assay.

pIC50: −log10 of the molar value. Some results are limits rather than exact numbers.

One may read the pIC50 as the IC50 on a negative log10 scale, so that one unit is a factor of ten. Low values mean a large IC50, high ones a small IC50. As to `CCCCCCCCCCCCCCCCCCNC(=O)[C@@H]1CSC(c2ccc(OCC)cc2)N1` (stereo not given in full), the pIC50 with DU-145 is less than 4.70; in the test with PC-3, less than 4.70; in test [1] it was less than 4.70; in the test on LNCaP, 5.21; in test [2], 5.36.
`CCCCCCCCCCCCCCCCCCNC(=O)[C@H]1NC(c2ccc(N(C)C)cc2)SC1(C)C` (stereo not given in full): the negative-log IC50 (pIC50) (with DU-145; in the test with PC-3; in test [1]; in the test on LNCaP; in test [2]) was less than 4.70 each time.
For the molecule `CCCCCCCCCCCCCCCCCCNC(=O)[C@@H]1CSC(c2cccc(O)c2)N1` (stereo not given in full), the pIC50 in the test on DU-145 was 5.24; in the test with PC-3, 5.17; in test [1], 5.40; with LNCaP, 5.77; in test [2], 5.92.
For the molecule `CCCCCCCCCCCCCCCCCCNC(=O)[C@@H]1CSC(c2c(OC)cc(OC)cc2OC)N1` (stereo not given in full), the pIC50 is 5.14 in the test with DU-145; 4.97 in the test on PC-3; 5.21 in test [1]; 5.62 with LNCaP; 6.08 in test [2].
As to `CCCCCCCCCCCCCCCCCCNC(=O)[C@@H]1CSC(c2cc(OC)c(OC)c(OC)c2)N1` (stereo not given in full), the pIC50 with DU-145 was 5.41; with PC-3, 5.40; in test [1], 5.62; with LNCaP, 6.09; in test [2] it was 6.32.
The like results for `CCCCCCCCCCCCCCCCCCNC(=O)[C@H]1NC(c2cc(OC)c(OC)c(OC)c2)SC1(C)C` (stereo not given in full) were, in that order, less than 4.70, less than 4.70, less than 4.70, less than 4.70 and 4.73.
For `CCCCCCCCN(CCCCCCCC)C(=O)[C@@H]1CSC(c2cc(OC)c(OC)c(OC)c2)N1` (stereo not given in full) the same measures were less than 4.70, less than 4.70, less than 4.70, 5.06 and 4.85.
`CCCCCCCCCCCCCCCCCCNC(=O)[C@@H]1CSC(c2ccc(N(C)C)cc2)N1` (stereo not given in full): the pIC50 in the test on DU-145 is 5.28; in the test on PC-3 it was 5.22; in test [1] it was 5.52; with LNCaP, 5.80; in test [2], 5.96.
The like results for `CCCCCCCCCCCCCCCCCCNC(=O)[C@@H]1CSC(c2ccc(O)cc2)N1` (stereo not given in full) were, in that order, 5.51, 5.28, 5.52, 5.80 and 6.09.
For `CCCCCCCCCCCCCCCCCCNC(=O)[C@@H]1CSC(c2ccc(OC)cc2)N1` (stereo not given in full) the same measures were 5.06, 4.72, 4.71, 5.68 and 5.82.

For the origin of these results see ChEMBL document CHEMBL1142809, “SAR studies of 2-arylthiazolidine-4-carboxylic acid amides: a novel class of cytotoxic agents for prostate cancer” (Bioorg Med Chem Lett, 2005).
